In brackets after ≈: the same amount, converted by molar mass. Like-named read-outs stand apart in the source and are kept apart here.
Tests used:
[1] = system: E. coli strain WEC and its Pine-Sol-selected mutant; experiment: Antibiotic susceptibility by discs (diameter of clearing); format: cell-based
Protocol: (§1) Mutants resistant to Pine-Sol/pine oil were obtained from stationary phase LB broth cultures of E. coli strain “WEC” (wild type strain 15-5068 from Carolina Biological Supply Co., Burlington, N.C.) and AG100 (George and Levy, J. Bacteriol. 155:531-540, 1983), at 30° C. on nutrient agar (NP 3.5GP) or LB agar with 2-3 days incubation in a variety of ways: using a 6 mm disc method; plating cells on plates or gradient plates (Curiale and Levy, J. Bacteriol. 151:209-215, 1982), containing PINE-SOL™ (product of Clorox Co., Oakland, Calif.) or pine oil itself.
(§2) Antibiotic susceptibility was measured at 30° C. using antibiotic susceptibility discs (Carolina Biological), gradient plates with the drug in the top agar (Curiale and Levy, 1982) or agar dilution plates (concentration steps of 1.5 fold; inocula of 10^5 cells/5 μl spot). While there was a variability of resistance phenotypes, all Pine-Sol/pine oil-selected mutants were also multidrug resistant (Table 1A, B).

[2] = system: E. coli strains (AG100, Pine-Sol/pine oil mutants, Mar mutants); experiment: Susceptibility by gradient plates (MIC); format: cell-based; details: Escherichia coli
Protocol: as §1, §2

[3] = system: E. coli strains bearing mar, soxS or robA plasmids; format: cell-based
Excerpt: Organic solvent tolerance mediated by the marA, soxS, robA and acrAB loci of E. coli is described in White et al. (J. Bacteriol. 179:6122-6126, 1997).

[4] = system: marA mRNA; experiment: Northern blot analysis of marA mRNA with inducer salicylate; format: cell-based, E. coli; details: Mar mutant AG102, mutants AP5 and NP3.5 GP
Excerpt: Over expression was also seen in mutant APS3 (data not shown). […] We concluded that AP5, NP3.5GP, and APS3, but not AP1, were probably Mar mutants.

[5] = read-out: Susceptibility by gradient plates (MIC), strain AG102, Mar mutant of AG100, selected on Tc (2 steps)
[6] = read-out: Susceptibility by gradient plates (MIC), strain AP1, mutant of AG100 selected by pine oil on disc
[7] = read-out: Susceptibility by gradient plates (MIC), strain AP5, mutant of AG100 selected as for AP1
[8] = read-out: Susceptibility by gradient plates (MIC), strain APS3, mutant of AG100 selected on Pine-Sol gradient (0-1.5%)
[9] = strain AG100, wildtype, read-out: Susceptibility by gradient plates (MIC)
[10] = strain HH180, deletion of 39 kb including mar locus, host MM294, read-out: Susceptibility by gradient plates (MIC)
[11] = strain HH188, HH180 containing pHHM183 (mar+), read-out: Susceptibility by gradient plates (MIC)
[12] = strain HH191, HH180 containing pHHM191 (marR2), read-out: Susceptibility by gradient plates (MIC)
[13] = strain HH193, HH180 containing pHHM193 (marR5), read-out: Susceptibility by gradient plates (MIC)

Question: How did the “Susceptibility by discs; diameter of clearing” value (“Susceptibility by discs” for short) ([1]; strain WEC, wild type, 30° C.) turn out when `CC1(C)S[C@@H]2[C@H](NC(=O)[C@H](N)c3ccccc3)C(=O)N2[C@H]1C(=O)O` [Ap, ampicillin] was run?
Answer: 22 mm

Question: What about the “Susceptibility by discs” value ([1]; {}) of the same molecule?
Answer: 12 mm

Question: What about the MIC [2, 5] of the same molecule?
Answer: 85 µg/mL (≈ 243 µM)

Question: What about the MIC [2, 6] of the same molecule?
Answer: 3 µg/mL (≈ 8.59 µM)

Question: And the MIC [2, 7]?
Answer: 7.2 µg/mL (≈ 20.6 µM)

Question: And the MIC [2, 8]?
Answer: 7.7 µg/mL (≈ 22 µM)

Question: What about the MIC [2, 9] of the same molecule?
Answer: < 1.2 µg/mL

Question: What about the MIC [2, 10] of the same molecule?
Answer: < 0.6 µg/mL

Question: What about the MIC [2, 11] of the same molecule?
Answer: < 1 µg/mL

Question: What about the MIC [2, 12] of the same molecule?
Answer: 5.4 µg/mL (≈ 15.5 µM)

Question: What about the MIC [2, 13] of the same molecule?
Answer: 5.9 µg/mL (≈ 16.9 µM)

Question: For `O=C(N[C@H](CO)[C@H](O)c1ccc([N+](=O)[O-])cc1)C(Cl)Cl` [Cm, chloramphenicol], which “Susceptibility by discs” value ([1]; strain WEC, wild type, 30° C.) is on record?
Answer: 27 mm

Question: And the “Susceptibility by discs” value ([1]; {})?
Answer: 11 mm

Question: What about the MIC [2, 5] of the same molecule?
Answer: > 35 µg/mL

Question: And the MIC [2, 6]?
Answer: 7.8 µg/mL (≈ 24.1 µM)

Question: And the MIC [2, 7]?
Answer: 21 µg/mL (≈ 65 µM)

Question: And the MIC [2, 8]?
Answer: > 35 µg/mL

Question: What about the MIC [2, 9] of the same molecule?
Answer: 2.6 µg/mL (≈ 8.05 µM)

Question: What does the source list for `CCn1cc(C(=O)O)c(=O)c2ccc(C)nc21` [Nal, nalidixic acid]?
Answer: MIC [2, 5]: 14 µg/mL (≈ 60.3 µM); MIC [2, 6]: 9.7 µg/mL (≈ 41.8 µM); MIC [2, 7]: 7.5 µg/mL (≈ 32.3 µM); MIC [2, 8]: 8.6 µg/mL (≈ 37 µM); MIC [2, 9]: 1.7 µg/mL (≈ 7.32 µM); MIC [2, 10]: < 1.8 µg/mL; MIC [2, 11]: 3.7 µg/mL (≈ 15.9 µM); MIC [2, 12]: 9.1 µg/mL (≈ 39.2 µM); MIC [2, 13]: 10.9 µg/mL (≈ 46.9 µM)

Question: With `CN(C)[C@@H]1C(O)=C(C(N)=O)C(=O)[C@@]2(O)C(O)=C3C(=O)c4c(O)cccc4[C@@](C)(O)[C@H]3C[C@@H]12` [Tc, tetracycline] as the molecule, how does the “Susceptibility by discs” value ([1]; strain WEC, wild type, 30° C.) read?
Answer: 21 mm

Question: And the “Susceptibility by discs” value ([1]; {})?
Answer: 14 mm

Question: What about the MIC [2, 5] of the same molecule?
Answer: > 12.8 µg/mL

Question: What about the MIC [2, 6] of the same molecule?
Answer: 2.4 µg/mL (≈ 5.4 µM)

Question: And the MIC [2, 7]?
Answer: 4.5 µg/mL (≈ 10.1 µM)

Question: And the MIC [2, 8]?
Answer: 5.3 µg/mL (≈ 11.9 µM)

Question: What about the MIC [2, 9] of the same molecule?
Answer: 1.8 µg/mL (≈ 4.05 µM)

Question: And the MIC [2, 10]?
Answer: < 0.6 µg/mL

Question: And the MIC [2, 11]?
Answer: 1.2 µg/mL (≈ 2.7 µM)

Question: What about the MIC [2, 12] of the same molecule?
Answer: 8.2 µg/mL (≈ 18.5 µM)

Question: What about the MIC [2, 13] of the same molecule?
Answer: > 11.4 µg/mL

Question: For `CCCCCC` [n-hexane], which “Growth in presence of organic solvent” value ([3]; AG100 (wild-type), no plasmid) is on record?
Answer: + +

Question: And the “Growth in presence of organic solvent” value ([3]; AG100, plasmid pMAK-TU1)?
Answer: + +

Question: And the “Growth in presence of organic solvent” value ([3]; AG100, plasmid pMAK-TU1 & TU2)?
Answer: + +

Question: What about the “Growth in presence of organic solvent” value ([3]; AG100, plasmid pMAK-TU2) of the same molecule?
Answer: + +

Question: What about the “Growth in presence of organic solvent” value ([3]; AG100, plasmid pSMarAB) of the same molecule?
Answer: + +

Question: And the “Growth in presence of organic solvent” value ([3]; AG100, plasmid pSRob)?
Answer: + +

Question: And the “Growth in presence of organic solvent” value ([3]; AG100, plasmid pSXS)?
Answer: + +

Question: And the “Growth in presence of organic solvent” value ([3]; AG100-A (ΔacrAB), no plasmid)?
Answer: −

Question: What about the “Growth in presence of organic solvent” value ([3]; AG100-B (acrR mutant), no plasmid) of the same molecule?
Answer: + +

Question: And the “Growth in presence of organic solvent” value ([3]; AG100K (marCORAB::kan), no plasmid)?
Answer: + ((+) visible growth(≦100 colonies))

Question: What about the “Growth in presence of organic solvent” value ([3]; AG100K, plasmid pMAK-TU1) of the same molecule?
Answer: + ((+) visible growth(≦100 colonies))

Question: What about the “Growth in presence of organic solvent” value ([3]; AG100K, plasmid pMAK-TU2) of the same molecule?
Answer: + +

Question: And the “Growth in presence of organic solvent” value ([3]; AG100K, plasmid pMAK-TUI & TU2)?
Answer: + +

Question: What about the “Growth in presence of organic solvent” value ([3]; AG100K, plasmid pSMarAB) of the same molecule?
Answer: + +

Question: What about the “Growth in presence of organic solvent” value ([3]; AG100K, plasmid pSRob) of the same molecule?
Answer: + +

Question: What about the “Growth in presence of organic solvent” value ([3]; AG100K, plasmid pSXS) of the same molecule?
Answer: + +

Question: What about the “Growth in presence of organic solvent” value ([3]; AG102 (marR mutation), no plasmid) of the same molecule?
Answer: + +

Question: What about the “Growth in presence of organic solvent” value ([3]; AG102-A (marRl, ΔacrAB), no plasmid) of the same molecule?
Answer: −

Question: What about the “Growth in presence of organic solvent” value ([3]; AG102-A, plasmid pSMarAB) of the same molecule?
Answer: −

Question: And the “Growth in presence of organic solvent” value ([3]; AG102-A, plasmid pSRob)?
Answer: −

Question: And the “Growth in presence of organic solvent” value ([3]; AG102-A, plasmid pSXS)?
Answer: −

Question: What about the “Growth in presence of organic solvent” value ([3]; DJ901 (ΔsoxRS), no plasmid) of the same molecule?
Answer: + +

Question: What about the “Growth in presence of organic solvent” value ([3]; DJ901, plasmid pMAK-TU1) of the same molecule?
Answer: + +

Question: And the “Growth in presence of organic solvent” value ([3]; DJ901, plasmid pMAK-TU1 & TU2)?
Answer: + +

Question: And the “Growth in presence of organic solvent” value ([3]; DJ901, plasmid pMAK-TU2)?
Answer: + +

Question: And the “Growth in presence of organic solvent” value ([3]; DJ901, plasmid pSMarAB)?
Answer: + +

Question: And the “Growth in presence of organic solvent” value ([3]; DJ901, plasmid pSRob)?
Answer: + +

Question: And the “Growth in presence of organic solvent” value ([3]; DJ901, plasmid pSXS)?
Answer: + +

Question: And the “Growth in presence of organic solvent” value ([3]; GC4468 (wild-type), no plasmid)?
Answer: + +

Question: What about the “Growth in presence of organic solvent” value ([3]; GC4468, plasmid pMAK-TU1) of the same molecule?
Answer: + +

Question: And the “Growth in presence of organic solvent” value ([3]; GC4468, plasmid pMAK-TU1 & TU2)?
Answer: + +

Question: And the “Growth in presence of organic solvent” value ([3]; GC4468, plasmid pMAK-TU2)?
Answer: + +

Question: And the “Growth in presence of organic solvent” value ([3]; GC4468, plasmid pSMarAB)?
Answer: + +

Question: And the “Growth in presence of organic solvent” value ([3]; GC4468, plasmid pSRob)?
Answer: + +

Question: And the “Growth in presence of organic solvent” value ([3]; GC4468, plasmid pSXS)?
Answer: + +

Question: What about the “Growth in presence of organic solvent” value ([3]; JHC1069 (cfxB1), no plasmid) of the same molecule?
Answer: + +

Question: What about the “Growth in presence of organic solvent” value ([3]; JTG1078 (soxR105), no plasmid) of the same molecule?
Answer: + +

Question: What about the “Growth in presence of organic solvent” value ([3]; MCH164 (Δmar), no plasmid) of the same molecule?
Answer: + ((+) visible growth(≦100 colonies))

Question: What about the “Growth in presence of organic solvent” value ([3]; MCH164, plasmid pMAK-TU1) of the same molecule?
Answer: + ((+) visible growth(≦100 colonies))

Question: And the “Growth in presence of organic solvent” value ([3]; MCH164, plasmid pMAK-TU1 & TU2)?
Answer: + +

Question: And the “Growth in presence of organic solvent” value ([3]; MCH164, plasmid pMAK-TU2)?
Answer: + +

Question: And the “Growth in presence of organic solvent” value ([3]; MCH164, plasmid pSMarAB)?
Answer: + +

Question: What about the “Growth in presence of organic solvent” value ([3]; MCH164, plasmid pSRob) of the same molecule?
Answer: + +

Question: What about the “Growth in presence of organic solvent” value ([3]; MCH164, plasmid pSXS) of the same molecule?
Answer: + +

Question: What about the “Growth in presence of organic solvent” value ([3]; RA4468 (robA::kan), no plasmid) of the same molecule?
Answer: + ((+) visible growth(≦100 colonies))

Question: And the “Growth in presence of organic solvent” value ([3]; RA4468, plasmid pMAK-TU1)?
Answer: + ((+) visible growth(≦100 colonies))

Question: What about the “Growth in presence of organic solvent” value ([3]; RA4468, plasmid pMAK-TU1 & TU2) of the same molecule?
Answer: + +

Question: And the “Growth in presence of organic solvent” value ([3]; RA4468, plasmid pMAK-TU2)?
Answer: + +

Question: What about the “Growth in presence of organic solvent” value ([3]; RA4468, plasmid pSMarAB) of the same molecule?
Answer: + +

Question: What about the “Growth in presence of organic solvent” value ([3]; RA4468, plasmid pSRob) of the same molecule?
Answer: + +

Question: And the “Growth in presence of organic solvent” value ([3]; RA4468, plasmid pSXS)?
Answer: + +

Question: For `CCCCC` [n-pentane], which “Growth in presence of organic solvent” value ([3]; AG102, Mar mutant of AG100, data not shown) is on record?
Answer: grew

Question: How did the “Effect of inducer on over expression of marA mRNA” value [4] turn out when `O=C(O)c1ccccc1O` [salicylate] was run?
Answer: enhanced

— patent publication US6448006B1, “Methods and compositions for reducing bacterial tolerance to antibacterials disinfectants and organic solvents” (priority 1997, dated 2002)
